Reference: publication PMC11997890, “In Vivo and In Vitro Pharmacokinetic Studies of a Dual Topoisomerase I/II Inhibitor” (ACS Pharmacology & Translational Science, 2025)

Experiments:
P-GP (ABCB1) = molecular target: T1, P-GP (ABCB1) (Homo sapiens, UniProt P08183); assay: Transporter inhibition, calcein-AM accumulation in MDCK cells (P-GP overexpression); assay type: cell-based; details: intracellular accumulation of calcein-AM
T1 construct: expressed in transfected cells; host or cells: MDCK (Madin Darby canine kidney)
T1 sequence (P08183 whole entry, species assumed): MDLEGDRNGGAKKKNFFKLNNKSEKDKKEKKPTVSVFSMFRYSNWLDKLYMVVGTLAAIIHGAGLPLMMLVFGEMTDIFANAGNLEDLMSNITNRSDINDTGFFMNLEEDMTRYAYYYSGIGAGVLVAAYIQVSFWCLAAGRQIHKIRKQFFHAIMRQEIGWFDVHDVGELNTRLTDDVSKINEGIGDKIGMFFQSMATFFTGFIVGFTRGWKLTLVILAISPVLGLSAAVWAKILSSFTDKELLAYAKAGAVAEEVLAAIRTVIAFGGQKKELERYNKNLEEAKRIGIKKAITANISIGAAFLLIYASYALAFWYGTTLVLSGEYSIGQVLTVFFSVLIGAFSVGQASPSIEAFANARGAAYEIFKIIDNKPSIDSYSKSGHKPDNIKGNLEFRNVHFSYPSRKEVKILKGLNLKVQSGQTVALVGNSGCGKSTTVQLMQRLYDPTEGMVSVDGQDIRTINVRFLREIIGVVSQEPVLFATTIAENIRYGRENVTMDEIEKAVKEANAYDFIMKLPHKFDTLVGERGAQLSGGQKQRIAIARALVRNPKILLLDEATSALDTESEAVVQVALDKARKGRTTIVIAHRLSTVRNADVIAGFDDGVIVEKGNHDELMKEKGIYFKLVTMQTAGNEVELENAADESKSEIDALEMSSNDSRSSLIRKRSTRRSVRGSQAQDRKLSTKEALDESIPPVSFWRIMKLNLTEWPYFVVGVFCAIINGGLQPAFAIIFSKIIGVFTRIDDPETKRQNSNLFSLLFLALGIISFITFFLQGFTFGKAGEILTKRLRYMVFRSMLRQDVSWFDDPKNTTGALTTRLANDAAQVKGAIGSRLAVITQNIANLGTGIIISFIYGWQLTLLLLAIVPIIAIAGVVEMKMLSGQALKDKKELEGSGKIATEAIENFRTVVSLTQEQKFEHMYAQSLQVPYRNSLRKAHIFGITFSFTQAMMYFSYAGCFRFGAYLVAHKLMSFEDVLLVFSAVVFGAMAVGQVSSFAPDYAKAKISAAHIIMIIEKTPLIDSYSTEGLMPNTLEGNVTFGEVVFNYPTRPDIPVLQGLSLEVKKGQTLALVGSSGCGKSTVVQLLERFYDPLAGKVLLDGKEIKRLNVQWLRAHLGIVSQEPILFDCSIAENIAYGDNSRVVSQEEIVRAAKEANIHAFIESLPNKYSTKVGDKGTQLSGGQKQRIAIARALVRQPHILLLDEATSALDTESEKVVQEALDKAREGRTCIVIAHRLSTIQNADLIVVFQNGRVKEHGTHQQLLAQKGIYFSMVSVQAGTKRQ
Method: (§1) The inhibitory characteristics of P8-D6 on the classic efflux transporters P-GP and BCRP (ABCG2) were evaluated (Figure ).
(§2) A potential interaction of P8-D6 with the export protein P-GP (ABCB1) was evaluated in MDCK (P-GP overexpression) and MDCKII (BCRP overexpression) cells. P-GP interaction was determined by the measurement of calcein accumulation within the cells according to Bauer et al. Calcein-acetoxymethylester (calcein-AM) is a nonfluorescent, lipophilic and therefore highly cell-permeable ester. Once inside the cell, the ester bonds are rapidly cleaved by nonspecific esterases, generating highly fluorescent calcein, which is trapped inside the cell because of its hydrophilic nature. Because calcein-AM is a substrate for P-GP, inhibition of the transporter decreases efflux, which results in a higher intracellular fluorescence signal. […] Calcein-AM (MoBiTec, Göttingen, FRG) was added to a final concentration of 1 μM and incubated for 30 min at 37 °C. Afterward, the cells were immediately washed 3 times with ice-cold Krebs–Ringer buffer and lysed with 1% Triton X-100. […] Each determination was repeated 3 times in 2 experiments to ensure reproducibility. All fluorescence values were corrected by subtracting the background fluorescence.

human serum albumin = molecular target: T2, human serum albumin (Homo sapiens, UniProt P02768); assay: Binding to isolated plasma protein by ultrafiltration
T2 construct: purchased Merck KGaA, Darmstadt A1653
Method: (§3) To examine the effect of the P8-D6 plasma protein binding on the in vivo bioavailability, human and rat plasma was spiked in vitro and incubated with P8-D6. By using ultrafiltration to separate free P8-D6 from the protein-bound fraction, a plasma protein binding of 99% (Figure A) was estimated. However, neither human α-1-microglobulin (3.06%) nor human serum albumin (0.91%) is responsible for binding. According to initial findings, γ-globulins (94.59%), human transferrin (90.43%), LDL (87.99%), human α2-HS glycoprotein (85.29%), and human fibrinogen (78.89%) lead to binding of P8-D6.
(§4) To examine the extent of plasma protein binding, 150 μL of blank samples of human plasma (1 mM) and rat plasma (1 mM), human albumin (1 mM, #A1653, Merck KGaA, Darmstadt); human α1-acid glycoprotein (1 mM; #G9885, Merck KGaA, Darmstadt); human α2-HS-glycoprotein (0.1 mM; #G0516, Merck KGaA, Darmstadt); human transferrin (0.2 mM; #T8158, Merck KGaA, Darmstadt); human fibrinogen (0.2 mM; #F3879, Merck KGaA, Darmstadt); LDL (0.2 mM; […]); and human γ-globulin (1 mM; #G4386, Merck KGaA, Darmstadt) were spiked with P8-D6 in the same final concentration as the protein and incubated in a shaking water bath at 37 °C for 120 min. Afterward, the unbound fraction of P8-D6 was separated by ultrafiltration (Vivaspin 500 10 000 MWCO filter). The sample preparation was performed according to plasma samples. Blank plasma samples served as the control samples.

human fibrinogen = molecular target: T3, human fibrinogen (Homo sapiens, UniProt P02671+P02675+P02679); assay: as above
T3 construct: purchased Merck KGaA, Darmstadt F3879
T3 sequence (P02671 20-629 limits assumed): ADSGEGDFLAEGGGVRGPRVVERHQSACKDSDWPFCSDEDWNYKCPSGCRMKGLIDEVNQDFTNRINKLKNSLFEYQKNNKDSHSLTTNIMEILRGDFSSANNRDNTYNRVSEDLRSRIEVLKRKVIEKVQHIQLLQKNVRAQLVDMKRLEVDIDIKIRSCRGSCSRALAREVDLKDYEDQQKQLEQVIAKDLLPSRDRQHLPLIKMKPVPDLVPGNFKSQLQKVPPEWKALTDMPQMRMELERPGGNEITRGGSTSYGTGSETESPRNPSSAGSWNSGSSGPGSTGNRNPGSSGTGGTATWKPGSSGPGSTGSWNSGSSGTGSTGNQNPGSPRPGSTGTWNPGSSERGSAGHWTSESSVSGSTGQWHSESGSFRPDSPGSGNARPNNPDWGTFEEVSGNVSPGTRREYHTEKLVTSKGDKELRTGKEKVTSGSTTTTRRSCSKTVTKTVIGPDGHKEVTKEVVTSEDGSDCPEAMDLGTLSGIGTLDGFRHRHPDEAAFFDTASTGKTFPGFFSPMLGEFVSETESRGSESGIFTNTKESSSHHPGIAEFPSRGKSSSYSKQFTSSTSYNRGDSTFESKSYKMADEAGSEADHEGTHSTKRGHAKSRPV
T3 sequence (P02675 31-491): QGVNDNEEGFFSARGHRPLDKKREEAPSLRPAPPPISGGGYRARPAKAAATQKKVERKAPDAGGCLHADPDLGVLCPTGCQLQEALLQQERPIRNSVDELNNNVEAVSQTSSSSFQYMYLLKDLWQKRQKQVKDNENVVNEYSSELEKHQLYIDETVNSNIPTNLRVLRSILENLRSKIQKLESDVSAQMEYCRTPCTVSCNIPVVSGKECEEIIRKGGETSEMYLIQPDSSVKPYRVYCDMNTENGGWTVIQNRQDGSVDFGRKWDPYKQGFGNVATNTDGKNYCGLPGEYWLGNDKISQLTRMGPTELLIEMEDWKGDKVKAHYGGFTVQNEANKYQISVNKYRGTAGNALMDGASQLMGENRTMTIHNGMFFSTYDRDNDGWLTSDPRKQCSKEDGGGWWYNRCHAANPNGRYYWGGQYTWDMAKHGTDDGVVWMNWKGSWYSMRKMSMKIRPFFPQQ
T3 sequence (P02679 27-433 limits assumed): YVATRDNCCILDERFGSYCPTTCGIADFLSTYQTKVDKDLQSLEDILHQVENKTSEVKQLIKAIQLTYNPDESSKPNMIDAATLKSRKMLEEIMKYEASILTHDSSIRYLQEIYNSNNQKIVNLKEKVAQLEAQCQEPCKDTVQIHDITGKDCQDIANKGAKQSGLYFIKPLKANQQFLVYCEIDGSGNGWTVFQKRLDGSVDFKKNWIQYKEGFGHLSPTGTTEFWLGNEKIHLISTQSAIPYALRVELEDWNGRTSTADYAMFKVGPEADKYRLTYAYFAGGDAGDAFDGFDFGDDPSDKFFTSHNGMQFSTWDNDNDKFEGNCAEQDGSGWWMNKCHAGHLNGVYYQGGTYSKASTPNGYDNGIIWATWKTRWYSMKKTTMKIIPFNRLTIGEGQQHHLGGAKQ
Method: as §3, §4

human α2-HS glycoprotein = molecular target: T4, human α2-HS glycoprotein (Homo sapiens, UniProt P02765); assay: as above
T4 construct: purchased Merck KGaA, Darmstadt G0516
T4 sequence (P02765 19-367): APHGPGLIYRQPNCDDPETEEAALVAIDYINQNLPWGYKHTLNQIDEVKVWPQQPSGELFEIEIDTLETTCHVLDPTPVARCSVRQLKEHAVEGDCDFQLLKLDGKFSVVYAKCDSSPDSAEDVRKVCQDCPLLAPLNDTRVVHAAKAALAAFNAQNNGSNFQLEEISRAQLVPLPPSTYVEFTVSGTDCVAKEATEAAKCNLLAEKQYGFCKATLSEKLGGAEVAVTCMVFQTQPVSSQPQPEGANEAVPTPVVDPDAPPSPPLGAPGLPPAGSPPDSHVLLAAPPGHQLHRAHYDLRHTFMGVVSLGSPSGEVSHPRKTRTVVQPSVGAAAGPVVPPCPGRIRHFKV
Method: as §3, §4

human transferrin = molecular target: T5, human transferrin (Homo sapiens, UniProt P02787); assay: as above
T5 construct: purchased Merck KGaA, Darmstadt T8158
T5 sequence (P02787 20-698): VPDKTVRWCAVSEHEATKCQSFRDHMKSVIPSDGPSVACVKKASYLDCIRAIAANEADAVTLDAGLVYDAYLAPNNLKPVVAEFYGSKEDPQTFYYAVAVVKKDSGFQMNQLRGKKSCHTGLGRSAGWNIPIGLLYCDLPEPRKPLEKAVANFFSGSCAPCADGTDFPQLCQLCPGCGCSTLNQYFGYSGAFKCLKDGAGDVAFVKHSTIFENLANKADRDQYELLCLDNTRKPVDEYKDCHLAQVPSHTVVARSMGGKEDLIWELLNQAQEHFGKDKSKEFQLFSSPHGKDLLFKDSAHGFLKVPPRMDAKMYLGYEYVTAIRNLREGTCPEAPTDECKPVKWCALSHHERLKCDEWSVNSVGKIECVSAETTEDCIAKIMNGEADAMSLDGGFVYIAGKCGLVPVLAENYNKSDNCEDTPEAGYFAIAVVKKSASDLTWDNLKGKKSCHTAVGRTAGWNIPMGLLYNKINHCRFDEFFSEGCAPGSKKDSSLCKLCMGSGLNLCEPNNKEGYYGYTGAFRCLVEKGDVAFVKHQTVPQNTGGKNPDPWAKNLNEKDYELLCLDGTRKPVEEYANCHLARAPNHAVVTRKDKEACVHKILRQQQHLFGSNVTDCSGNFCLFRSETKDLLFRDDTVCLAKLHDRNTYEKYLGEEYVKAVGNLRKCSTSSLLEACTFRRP
Method: as §3, §4

human = molecular target: T6, human (Homo sapiens, UniProt P02763); assay: as above
T6 construct: purchased Merck KGaA, Darmstadt G9885
T6 sequence (P02763 19-201): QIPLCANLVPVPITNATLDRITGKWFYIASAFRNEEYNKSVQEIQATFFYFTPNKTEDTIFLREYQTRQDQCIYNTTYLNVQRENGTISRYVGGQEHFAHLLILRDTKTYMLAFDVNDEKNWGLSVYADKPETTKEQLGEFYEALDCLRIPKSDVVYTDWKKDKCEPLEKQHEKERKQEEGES
Method: as §3, §4

LDL = assay: as above
Method: as §3, §4

BCRP (ABCG2) = molecular target: T7, BCRP (ABCG2) (Homo sapiens, UniProt Q9UNQ0); assay: Transporter inhibition, calcein-AM accumulation in MDCKII cells (BCRP overexpression); assay type: cell-based; details: intracellular accumulation of calcein-AM
T7 construct: expressed in transfected cells; host or cells: MDCKII
T7 sequence (Q9UNQ0 whole entry, species assumed): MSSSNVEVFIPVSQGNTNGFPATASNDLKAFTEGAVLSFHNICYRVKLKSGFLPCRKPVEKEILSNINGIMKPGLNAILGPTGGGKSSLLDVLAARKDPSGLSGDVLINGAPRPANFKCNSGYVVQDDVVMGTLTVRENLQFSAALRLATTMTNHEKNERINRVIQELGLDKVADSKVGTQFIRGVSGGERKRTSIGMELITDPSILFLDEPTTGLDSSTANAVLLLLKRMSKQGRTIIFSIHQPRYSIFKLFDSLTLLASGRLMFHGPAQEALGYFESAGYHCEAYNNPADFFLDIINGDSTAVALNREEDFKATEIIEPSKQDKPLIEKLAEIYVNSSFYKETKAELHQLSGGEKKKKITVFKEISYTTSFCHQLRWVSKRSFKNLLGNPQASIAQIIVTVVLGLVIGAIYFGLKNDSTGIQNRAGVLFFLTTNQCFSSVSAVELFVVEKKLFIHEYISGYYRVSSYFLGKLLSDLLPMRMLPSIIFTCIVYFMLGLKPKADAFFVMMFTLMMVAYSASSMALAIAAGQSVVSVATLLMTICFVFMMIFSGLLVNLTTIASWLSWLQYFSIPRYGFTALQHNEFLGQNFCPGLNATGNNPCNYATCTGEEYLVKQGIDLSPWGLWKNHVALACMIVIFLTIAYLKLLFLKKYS
Method: as §1, §2

Q: `COc1cc(-c2cc3ccncc3c3nc(OCCN(C)C)c4cnccc4c23)cc(OC)c1OC` [P8-D6, 6-(N,N-dimethyl-2-aminoethoxy)-11-(3,4,5-trimethoxyphenyl)-pyrido[3,4-c][1,9]-phenanthroline] was tested. Which IC50 (P-GP (ABCB1)) did it give?
A: The IC50 was 20.6 µM.

Q: And the “binding of P8-D6” value (human serum albumin)?
A: The value was 0.91%.

Q: What about the “binding of P8-D6” value (human fibrinogen) of the same compound?
A: The value was 78.89%.

Q: What about the “binding of P8-D6” value (human α2-HS glycoprotein) of the same compound?
A: The value was 85.29%.

Q: And the “binding of P8-D6” value (human transferrin)?
A: The value was 90.43%.

Q: What about the “binding of P8-D6” value (human) of the same compound?
A: Its value is 3.06%.

Q: What about the “binding of P8-D6” value (LDL) of the same compound?
A: Its value is 87.99%.

Q: And the IC50 (BCRP (ABCG2))?
A: The IC50 was 16.3 µM.
